From patent US20110053900A1, “PROGESTERONE ANTAGONISTS SUCH AS CDB-4124 IN THE TREATMENT OF BREAST CANCER” (Repros Therapeutics inc, priority 2008, published 2011)

How the values were obtained:
[1] = Estrogen levels in human females during administration; format: in vivo; details: administration periods of at least six months
[2] = Serum corticosterone by ELISA; format: in vivo, rat; details: 20 or 10 mg/kg
Method: The animals were assessed three times for their levels of progesterone: initially, when they were about to go on treatment; a second time after 21 days of treatment; and finally after treatment at sacrifice which was 2-4 days after the last s.c. injection. All blood samples were taken by heart puncture; serum was prepared and held frozen at −40° C. The levels of the steroid hormones progesterone, cortisol, and corticosterone were determined by ELISA.
The concentrations of steroid hormones were determined three times during the study: before the beginning of treatments, after 21 days of treatment and finally after treatment at sacrifice which was 2-4 days after the last s.c. injection. All samples were taken by heart puncture. Serum was obtained and held frozen at −40° C. The levels of steroid hormones were determined by ELISA.
Corticosterone is the most abundant glucocorticoid in rats. The effects of the SPRMs on cortisol may be secondary to strong effects on corticosterone. […] The levels of corticosterone were 10-40 times higher than the levels of cortisol. However, almost no difference between groups with respect to mean corticosterone levels was observed. […] There was no statistical difference in levels of corticosterone between animals with tumors and without tumors at either 21-days (p=0.94, t-test, two-tailed) or at sacrifice (p=0.37, t-test, two-tailed).

Structure (SMILES): COCC(=O)[C@@]1(OC(C)=O)CC[C@H]2[C@@H]3CCC4=CC(=O)CCC4=C3[C@@H](c3ccc(N(C)C)cc3)C[C@@]21C [CDB-4124, 21-methoxy-17α-acetoxy-11β-(4 N,N-dimethylaminophenyl)-19-norpregna-4,9-diene-3,20-dione]
- estrogen levels in human females (in words) [1]: maintain estrogen levels in the normal range
- effect on serum corticosterone (in words) [2]: no strong effect
